Measurements from PubChem BioAssay AID256 (DTP/NCI, 2004).
Where “and” joins values, the source holds several entries; their conditions need not be identical. Identical values can stand only once. Toxic doses and inconclusive results are not listed. The calls were made as follows: active = survival T/C of 150% or more; inactive = T/C below 125% in these data.

System: CD2F1 mice, L1210 leukemia ip, survival T/C
Experiment: NCI In Vivo Anticancer Drug Screen. Data for tumor model L1210 Leukemia (intraperitoneal) in CD2F1 (CDF1) mice
Details: endpoint: mean survival time, higher = longer survival
Procedure, shortened: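 Ratio T/C, where T is the treated-group value and C the vehicle-dosed control value, from mice implanted with a transplantable tumor.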

[1] = dose: 100.0 mg/kg/injection, schedule: Q04DX003 (ip), vehicle: saline with Tween-80
[2] = dose: 200.0 mg/kg/injection, schedule: Q04DX003 (ip), vehicle: saline with Tween-80
[3] = dose: 400.0 mg/kg/injection, schedule: Q04DX003 (ip), vehicle: saline with Tween-80
[4] = dose: 100.0 mg/kg/injection, schedule: Q04DX002 (ip), vehicle: saline with Tween-80
[5] = dose: 200.0 mg/kg/injection, schedule: Q04DX002 (ip), vehicle: saline with Tween-80
[6] = dose: 100.0 mg/kg/injection, schedule: Q01DX001 (ip), vehicle: saline with Tween-80
[7] = dose: 100.0 mg/kg/injection, schedule: Q01DX009 (ip), vehicle: saline with Tween-80
[8] = dose: 200.0 mg/kg/injection, schedule: Q01DX001 (ip), vehicle: saline with Tween-80
[9] = dose: 200.0 mg/kg/injection, schedule: Q01DX009 (ip), vehicle: saline with Tween-80
[10] = dose: 400.0 mg/kg/injection, schedule: Q01DX001 (ip), vehicle: saline with Tween-80
[11] = dose: 400.0 mg/kg/injection, schedule: Q01DX009 (ip), vehicle: saline with Tween-80
[12] = dose: 50.0 mg/kg/injection, schedule: Q01DX009 (ip), vehicle: saline
[13] = dose: 100.0 mg/kg/injection, schedule: Q01DX009 (ip), vehicle: saline
[14] = dose: 400.0 mg/kg/injection, schedule: Q04DX002 (ip), vehicle: saline with Tween-80
[15] = dose: 100.0 mg/kg/injection, schedule: Q01DX001 (ip), vehicle: saline
[16] = dose: 200.0 mg/kg/injection, schedule: Q01DX001 (ip), vehicle: saline
[17] = dose: 400.0 mg/kg/injection, schedule: Q01DX001 (ip), vehicle: saline
[18] = dose: 25.0 mg/kg/injection, schedule: Q04DX002 (ip), vehicle: saline with Tween-80
[19] = dose: 50.0 mg/kg/injection, schedule: Q04DX002 (ip), vehicle: saline with Tween-80
[20] = dose: 12.5 mg/kg/injection, schedule: Q04DX002 (ip), vehicle: saline with Tween-80
[21] = dose: 100.0 mg/kg/injection, schedule: Q01DX001 (ip), vehicle: Klucel (hydroxypropylcellulose) (HPC)
[22] = dose: 200.0 mg/kg/injection, schedule: Q01DX001 (ip), vehicle: Klucel (hydroxypropylcellulose) (HPC)
[23] = dose: 400.0 mg/kg/injection, schedule: Q01DX001 (ip), vehicle: Klucel (hydroxypropylcellulose) (HPC)

Measured: T/C

O=C(NCc1ccccc1)C1C2CCC(C2)C1C(=O)NCc1ccccc1 (stereo not given)
inactive: [1] 102 % of control | [2] 102 % of control | [3] 98 % of control

Cn1c(CS)nc2ccccc21
inactive: [4] 101 % of control | [5] 93 % of control

C=CCN(CC=C)CCNc1cc(C)nc(Nc2nc3ccc(Cl)cc3[nH]2)n1
inactive: [6] 94 % of control | [7] 86 % of control | [8] 92 % of control | [9] 93 % of control | [10] 94 % of control | [11] 100 % of control

CC(=O)Nc1nc(Br)c2ccccc2c1-c1ccc(N(CCOS(C)(=O)=O)CCOS(C)(=O)=O)cc1
inactive: dose: 12.5 mg/kg/injection, schedule: Q04DX003 (ip), vehicle: DMSO 105 % of control | dose: 25.0 mg/kg/injection, schedule: Q04DX003 (ip), vehicle: DMSO 105 % of control | dose: 50.0 mg/kg/injection, schedule: Q04DX003 (ip), vehicle: DMSO 110 % of control | dose: 100.0 mg/kg/injection, schedule: Q04DX003 (ip), vehicle: DMSO 121 % of control

O=C(O)c1cc2ccccc2cn1
inactive: [12] 108 % of control | [13] 95 % of control

N=S(=O)(c1ccccc1)c1ccccc1
inactive: [6] 98 % of control | [4] 110 % of control | [8] 94 % of control | [5] 93 % of control | [10] 107 % of control

CC(=O)Oc1cc([N+](=O)[O-])ccc1C(=O)O
inactive: [7] 102 % of control | [9] 102 % of control

CCCCCCCCCCCCCCCCCC[N+]1(C)CCC[N+](C)(CCCCCCCCCCCCCCCCCC)CC1 (stereo not given)
inactive: [4] 98 % of control and 100 % of control | [1] 86 % of control and 108 % of control | [5] 92 % of control and 100 % of control | [2] 90 % of control and 104 % of control | [14] 87 % of control and 92 % of control | [3] 88 % of control

Nc1ccc(CCC(=O)Nc2ccc(S(=O)(=O)F)cc2)cc1
inactive: [15] 97 % of control | [16] 102 % of control | [17] 97 % of control

O=c1[nH]c2ccccc2nc1Cl
inactive: [18] 94 % of control | [19] 94 % of control | [4] 94 % of control | [5] 90 % of control | [14] 90 % of control

O=C(C[n+]1cccc2ccccc21)c1ccc([N+](=O)[O-])cc1
inactive: [18] 102 % of control | [19] 98 % of control | [4] 102 % of control

COc1ccc(/C=N/NC(=O)CNC(=O)Nc2cccc(Cl)c2)cc1
inactive: dose: 12.5 mg/kg/injection, schedule: Q01DX009 (ip), vehicle: saline with Tween-80 91 % of control | dose: 25.0 mg/kg/injection, schedule: Q01DX009 (ip), vehicle: saline with Tween-80 91 % of control

COC(=O)C1C2OC3C(OC(=O)C31)C2Br (stereo not given)
inactive: [7] 91 % of control | [1] 86 % of control | [9] 91 % of control | [2] 94 % of control | [11] 95 % of control | [3] 91 % of control

CCOC(=O)c1ccc(NC(=O)N(C)C2CCCCC2)cc1
inactive: dose: 50.0 mg/kg/injection, schedule: Q01DX009 (ip), vehicle: saline with Tween-80 95 % of control and 102 % of control | [7] 100 % of control and 104 % of control | [4] 91 % of control and 92 % of control | [1] 92 % of control | [9] 100 % of control and 104 % of control | [5] 92 % of control and 109 % of control | [2] 96 % of control | [14] 102 % of control | [3] 91 % of control

O=C1Nc2ccccc2/C1=C/c1c[nH]c2ccccc12
inactive: [19] 103 % of control | [4] 90 % of control | [5] 107 % of control

COC(=O)C(C(N)=O)C(=O)C1C(=O)N(c2ccccc2)N=C1C (stereo not given)
inactive: [19] 97 % of control | [4] 93 % of control | [5] 93 % of control

O=c1c2ccccc2nnn1OCc1ccccc1
inactive: dose: 12.5 mg/kg/injection, schedule: Q01DX001 (ip), vehicle: distilled water + Tween-80 104 % of control | dose: 25.0 mg/kg/injection, schedule: Q01DX001 (ip), vehicle: distilled water + Tween-80 90 % of control | dose: 50.0 mg/kg/injection, schedule: Q01DX001 (ip), vehicle: distilled water + Tween-80 92 % of control | dose: 100.0 mg/kg/injection, schedule: Q01DX001 (ip), vehicle: distilled water + Tween-80 90 % of control | dose: 200.0 mg/kg/injection, schedule: Q01DX001 (ip), vehicle: distilled water + Tween-80 88 % of control

COc1ccc(NC(=O)Oc2cc(=O)oc3ccccc23)c(Cl)c1
inactive: dose: 50.0 mg/kg/injection, schedule: Q01DX009 (ip), vehicle: Klucel (hydroxypropylcellulose) (HPC) 107 % of control | dose: 100.0 mg/kg/injection, schedule: Q01DX009 (ip), vehicle: Klucel (hydroxypropylcellulose) (HPC) 96 % of control | dose: 200.0 mg/kg/injection, schedule: Q01DX009 (ip), vehicle: Klucel (hydroxypropylcellulose) (HPC) 100 % of control

O=C(/C=C/c1ccccc1)Oc1cc(O)cc(O)c1
inactive: [20] 102 % of control | [18] 105 % of control | [19] 105 % of control

CC(C)(C)C(=O)CC(=O)C(C)(C)C.CC(C)(C)C(=O)CC(=O)C(C)(C)C.CC(C)(C)C(=O)CC(=O)C(C)(C)C.[Nd]
inactive: [1] 101 % of control | [2] 95 % of control | [3] 95 % of control

CN1C(=O)C(Cl)=C(Cl)C1=O
inactive: dose: 1.56 mg/kg/injection, schedule: Q04DX003 (ip), vehicle: saline 103 % of control | dose: 3.13 mg/kg/injection, schedule: Q04DX003 (ip), vehicle: saline 101 % of control | dose: 6.25 mg/kg/injection, schedule: Q04DX003 (ip), vehicle: saline 101 % of control

CN(C)CCCN=Cc1cc([N+](=O)[O-])ccc1O.CN(C)CCCN=Cc1cc([N+](=O)[O-])ccc1O.[Ni+2]
inactive: dose: 6.25 mg/kg/injection, schedule: Q04DX002 (ip), vehicle: saline with Tween-80 91 % of control | [20] 91 % of control | [19] 93 % of control

O=NC1CC=CC1Cl (stereo not given)
inactive: [15] 96 % of control and 98 % of control | [16] 107 % of control and 102 % of control | [17] 101 % of control and 98 % of control

O=c1[nH]cc(S)c(=O)[nH]1
inactive: [4] 106 % of control | [5] 97 % of control | [14] 106 % of control

O/N=C1\CCCCC1C(O)(/C(=N/O)c1ccccc1)c1ccccc1 (stereo not given)
inactive: [6] 96 % of control | [8] 86 % of control | [10] 91 % of control

CCCCOC(=O)CNC(=O)c1ccc(C)c(OCc2ccccc2)c1[N+](=O)[O-]
inactive: dose: 75.0 mg/kg/injection, schedule: Q01DX001 (ip), vehicle: steriod suspending solution 100 % of control | dose: 150.0 mg/kg/injection, schedule: Q01DX001 (ip), vehicle: steriod suspending solution 100 % of control | dose: 300.0 mg/kg/injection, schedule: Q01DX001 (ip), vehicle: steriod suspending solution 100 % of control

O=C1c2ccccc2C(=O)c2c(NCCNCCNCCO)ccc(NCCNCCNCCO)c21
inactive: dose: 8.0 mg/kg/injection, schedule: Q01DX009 (ip), vehicle: acid diluted with saline 100 % of control | dose: 16.0 mg/kg/injection, schedule: Q01DX009 (ip), vehicle: acid diluted with saline 96 % of control | dose: 32.0 mg/kg/injection, schedule: Q01DX009 (ip), vehicle: acid diluted with saline 108 % of control | dose: 64.0 mg/kg/injection, schedule: Q01DX009 (ip), vehicle: acid diluted with saline 96 % of control

Nc1cccc(OCCOc2ccccc2[N+](=O)[O-])c1
inactive: [21] 93 % of control | [22] 90 % of control | [23] 90 % of control

NC(CC(=O)NO)C(=O)O (stereo not given)
inactive: dose: 12.5 mg/kg/injection, schedule: Q01DX009 (ip), vehicle: saline 95 % of control | dose: 25.0 mg/kg/injection, schedule: Q01DX009 (ip), vehicle: saline 101 % of control | [12] 101 % of control | [13] 95 % of control | dose: 200.0 mg/kg/injection, schedule: Q01DX009 (ip), vehicle: saline 111 % of control and 95 % of control | dose: 400.0 mg/kg/injection, schedule: Q01DX009 (ip), vehicle: saline 103 % of control

O=C(C[n+]1ccccc1)CC(O)(C(F)(F)F)C(F)(F)F
inactive: [7] 105 % of control | [9] 103 % of control

COc1ccc(/C=N/N=C(/N)N[N+](=O)[O-])cc1
inactive: [21] 94 % of control | [22] 97 % of control | [23] 94 % of control

ClI(Cl)c1ccccc1
inactive: [7] 98 % of control
